Legend:
[1] = test system: M109 murine lung carcinoma; experiment: distal site tumor model, M109 murine lung carcinoma; type: in vivo
[2] = test system: HOC79, a clinically derived Taxol unresponsive ovarian carcinoma xenograft; experiment: distal site tumor model, HOC79 ovarian carcinoma xenograft; type: in vivo
[3] = test system: HCT/pk human colon carcinoma xenograft (multidrug resistant tumor model); experiment: distal site tumor model, HCT/pk human colon carcinoma xenograft; type: in vivo
[4] = test system: L2987 human lung carcinoma xenograft; experiment: distal site tumor model, L2987 human lung carcinoma xenograft; type: in vivo
[5] = test system: tubulin; experiment: tubulin polymerization assay; type: biochemical

Substance: C-4 methylcarbonate analog of paclitaxel [Compound I]
- antitumor activity compared with paclitaxel [1]: superior to paclitaxel
- antitumor activity compared with paclitaxel [2]: superior to paclitaxel
- antitumor activity compared with paclitaxel [3]: superior to paclitaxel
- antitumor activity compared with paclitaxel [4]: superior to paclitaxel
- potency in tubulin polymerization relative to paclitaxel [5]: about twice as potent as paclitaxel

— patent US6353120B2, “Process for the preparation of a paclitaxel C-4 methyl carbonate analog” (Bristol-Myers Squibb Company, priority 1999, dated 2002)
